In general, AC50 refers to the concentration at which the activity in the assay is half-maximal. The EC50 is the concentration at which the effect is half-maximal.

Holding throughout (format): cell-based
One assay concerns the target T1, APOL1 G2 (Homo sapiens, UniProt O14791, DEL388-389).
T1 construct: expressed in transfected cells; host or cells: HEK293 T-REx clonal line stably expressing GCaMP6f (HEK T-REx/GCaMP6f/APOL1 G2 K6.3), doxycycline induced
T1 sequence (O14791 with tags, fused parts or gaps DEL388-389): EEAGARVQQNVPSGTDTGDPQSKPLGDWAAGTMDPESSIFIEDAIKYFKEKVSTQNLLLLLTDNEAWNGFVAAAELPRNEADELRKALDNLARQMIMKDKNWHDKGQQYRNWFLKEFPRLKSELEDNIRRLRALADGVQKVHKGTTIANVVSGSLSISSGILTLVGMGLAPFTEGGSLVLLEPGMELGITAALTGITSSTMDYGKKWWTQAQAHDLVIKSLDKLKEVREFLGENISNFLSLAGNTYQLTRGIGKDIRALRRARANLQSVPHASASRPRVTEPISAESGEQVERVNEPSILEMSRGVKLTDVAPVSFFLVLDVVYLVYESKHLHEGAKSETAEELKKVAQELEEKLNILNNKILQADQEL
The assay can be described thus: APOL1-mediated calcium transport (calcium influx) assay, HEK T-REx/GCaMP6f/APOL1 G2 K6.3 cells, FLIPR TETRA. To be noted: prevention of calcium influx; geometric mean of at least 2 assay runs; † = average of a technical replicate from a single assay run. The essentials:
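A HEK293 T-REx clone stably expressing GCaMP6f had APOL1 G2 induced with doxycycline (20 ng/mL solution added) for 6 h. Cells were then washed into Ca2+-free Tyrode's buffer (pH 7.4) and preincubated with compounds (duplicate 8-point) for 10 min at room temperature. Ca2+ injection to 5 mM final produced FLIPR GCaMP fluorescence, giving AC50 for influx inhibition (geometric mean, ≥2 runs).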

The test system of assay [1] is HEK293 cells overexpressing APOL1 G2. The assay can be described thus: APOL1 G2 HEK293 cell rescue assay (reversal of cell death caused by overexpression of APOL1). The following applies: Homo sapiens, HEK293, HEK293 overexpressing APOL1 G2; geometric mean of at least 2 assay runs; † = single assay run. Summed up: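 Each compound tested in duplicate wells on one plate per run, with values usually the geometric mean across at least two runs on different days, occasionally from one run only. Read-out: concentration giving half-maximal rescue of APOL1 G2 overexpression-induced death of HEK293 cells.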

The test system of assay [2] is HEK293 clonal cell line overexpressing APOL1 G1. Kind of assay: APOL1 G1 HEK293 cell rescue assay (Example B3). The following applies: Homo sapiens, HEK293, HEK293 clonal line overexpressing APOL1 G1; geometric mean of at least 2 runs; † = single run; ¥ = concentration at 50% rescue estimated (no sigmoidal curve). The essentials:
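Rescue of cell death caused by APOL1 G1 overexpression was measured in a clonal HEK293 line. Compounds were tested in duplicate on one plate, and EC50s were geometric means across at least two runs on different days. Some values are estimated 50%-rescue concentrations where curve fitting failed.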

As to `O=C1CCc2cc(OCCN3CCC4(CC3)C(=O)Nc3ccc(C(F)F)cc34)cnc2N1C1CC(CO)C1` (stereo not drawn) [Compound 316, 5-(difluoromethyl)-1′-[2-({8-[3-(hydroxymethyl)cyclobutyl]-7-oxo-5,6,7,8-tetrahydro-1,8-naphthyridin-3-yl}oxy)ethyl]-1,2-dihydrospiro[indole-3,4′-piperidin]-2-one], the AC50 on APOL1 G2 worked out at 1150 nM. Further, the EC50 in assay [1] was 32.7 nM; in assay [2], 99.4 nM.

As to `CC1(O)CC(CN2C(=O)CCc3cc(OCCN4CCC5(CC4)C(=O)Nc4ccc(C(F)F)cc45)cnc32)C1` (stereo not drawn) [Compound 320, 5-(difluoromethyl)-1′-[2-({8-[(3-hydroxy-3-methylcyclobutyl)methyl]-7-oxo-5,6,7,8-tetrahydro-1,8-naphthyridin-3-yl}oxy)ethyl]-1,2-dihydrospiro[indole-3,4′-piperidin]-2-one], on APOL1 G2, the AC50 is 787 nM. Further, the values for the EC50 in assay [1] and in assay [2] were 22.1 nM and 53.9 nM, respectively.

As to `[2H]C([2H])([2H])N1C(=O)C2(CCN(CCOc3ccc(C4CCN(S(C)(=O)=O)CC4)cc3)CC2)c2cc(Cl)ccc21` [Compound 412, 5-chloro-1′-{2-[4-(1-methanesulfonylpiperidin-4-yl)phenoxy]ethyl}-1-(^2H3)methyl-1,2-dihydrospiro[indole-3,4′-piperidin]-2-one], the AC50 at APOL1 G2 was determined as 2900 nM. In addition, the EC50 in assay [1] is 45.3 nM; in assay [2], 70.7 nM.

For `[2H]C([2H])([2H])N1C(=O)C2(CCN(CCOc3ccc(S(C)(=O)=NC)c(C(F)(F)F)c3)CC2)c2cc(Cl)ccc21` (stereo not drawn) [Compound 413, 5-chloro-1-(^2H3)methyl-1′-(2-{4-[methyl(methylimino)oxo-λ^6-sulfanyl]-3-(trifluoromethyl)phenoxy)ethyl)-1,2-dihydrospiro[indole-3,4′-piperidin]-2-one], the AC50 at APOL1 G2 was 251 nM. Moreover, the figures for the EC50 in assay [1] and in assay [2] were 60.3 nM and 208 nM, respectively.

With `[2H]C([2H])([2H])N1C(=O)C2(CCN(CCOc3ccc(C4(S(=O)(=O)C(C)C)COC4)cc3)CC2)c2cc(Cl)ccc21` [Compound 414, 5-chloro-1-(^2H3)methyl-1′-(2-{4-[3-(propane-2-sulfonyl)oxetan-3-yl]phenoxy}ethyl)-1,2-dihydrospiro[indole-3,4′-piperidin]-2-one], at APOL1 G2, the AC50 amounted to 347 nM. In addition, the values for the EC50 in assay [1] and in assay [2] were 36.7 nM and 110 nM, respectively.

On to `[2H]C([2H])([2H])N1C(=O)C2(CCN(CCOc3ccc(C4(S(C)(=O)=O)CCC4)cc3)CC2)c2cc(Cl)ccc21` [Compound 415, 5-chloro-1′-{2-[4-(1-methanesulfonylcyclobutyl)phenoxy]ethyl}-1-(^2H3)methyl-1,2-dihydrospiro[indole-3,4′-piperidin]-2-one], for which the AC50 on APOL1 G2 is 319 nM. The concentration giving a half-maximal response (EC50) is 20.3 nM in assay [1] and 69.2 nM in assay [2].

Turning to `[2H]C([2H])([2H])N1C(=O)C2(CCN(CCOc3ccc4c(c3)CN(C)C4=O)CC2)c2cc(Cl)ccc21` [Compound 416, 5-chloro-1-(^2H3)methyl-1′-{2-[(2-methyl-1-oxo-2,3-dihydro-1H-isoindol-5-yl)oxy]ethyl}-1,2-dihydrospiro[indole-3,4′-piperidin]-2-one], the AC50 at APOL1 G2 came to 449 nM. Also, the EC50 was 169 nM in assay [1] and 382 nM in assay [2].

For `[2H]C([2H])([2H])N1C(=O)C2(CCN(CCOc3cnc4c(c3)CCC(=O)N4CC(C)(C)O)CC2)c2cc(Cl)ccc21` [Compound 417, 5-chloro-1′-(2-{[8-(2-hydroxy-2-methylpropyl)-7-oxo-5,6,7,8-tetrahydro-1,8-naphthyridin-3-yl]oxy}ethyl)-1-(^2H3)methyl-1,2-dihydrospiro[indole-3,4′-piperidin]-2-one], the AC50 at APOL1 G2 came out at 343 nM. The values for the EC50 in assay [1] and in assay [2] were 49.2 nM and 104 nM, respectively.

Turning to `[2H]C([2H])([2H])N1C(=O)C2(CCN(CCOc3ccc(S(C)(=O)=O)cc3)CC2)c2cc(Cl)ccc21` [Compound 418], the AC50 on APOL1 G2 was found to be 309 nM. For the same compound, the EC50 in assay [1] was 78.5 nM; in assay [2] it was 215 nM.

In the case of `[2H]C([2H])([2H])N1C(=O)C2(CCN(CCOc3cnc4c(c3)CCC(=O)N4[C@H]3C[C@@](C)(O)C3)CC2)c2cc(Cl)ccc21` [Compound 419, 5-chloro-1-(^2H3)methyl-1′-[2-({7-oxo-8-[(1r,3s)-3-hydroxy-3-methylcyclobutyl]-5,6,7,8-tetrahydro-1,8-naphthyridin-3-yl}oxy)ethyl]-1,2-dihydrospiro[indole-3,4′-piperidin]-2-one], the AC50 at APOL1 G2 is 383 nM. For the same compound, the results for the concentration giving a half-maximal response (EC50) in assay [1] and in assay [2] were 30.9 nM and 108 nM, respectively.

As for `[2H]C([2H])([2H])N1C(=O)C2(CCN(CCOc3cnc(C4(CO)CC4)nc3)CC2)c2cc(Cl)ccc21` [Compound 420, 5-chloro-1′-[2-({2-[1-(hydroxymethyl)cyclopropyl]pyrimidin-5-yl}oxy)ethyl]-1-(^2H3)methyl-1,2-dihydrospiro[indole-3,4′-piperidin]-2-one], on APOL1 G2, the AC50 was 892 nM. Moreover, the values for the EC50 in assay [1] and in assay [2] were 64.7 nM and 144 nM, respectively.

On to `[2H]C([2H])([2H])N1C(=O)C2(CCN(CCOc3cc(F)c4c(c3)CCNS4(=O)=O)CC2)c2cc(Cl)ccc21` [Compound 421, 6-{2-[5-chloro-1-(^2H3)methyl-2-oxo-1,2-dihydrospiro[indole-3,4′-piperidin]-1′-yl]ethoxy}-8-fluoro-3,4-dihydro-2H-1λ^6,2-benzothiazine-1,1-dione], for which, on APOL1 G2, the AC50 stood at 564 nM. Further, the results for the EC50 in assay [1] and in assay [2] were 34.5 nM and 83.3 nM, respectively.

Consider `[2H]C([2H])([2H])N1C(=O)C2(CCN(CCOc3cnc4c(c3)CCC(=O)N4[C@H]3C[C@@H](O)C3)CC2)c2cc(Cl)ccc21` [Compound 423, 5-chloro-1-(^2H3)methyl-1′-[2-({7-oxo-8-[(cis)-3-hydroxycyclobutyl]-5,6,7,8-tetrahydro-1,8-naphthyridin-3-yl}oxy)ethyl]-1,2-dihydrospiro[indole-3,4′-piperidin]-2-one], for which the AC50 at APOL1 G2 was determined as 284 nM. Further, the EC50 is 59.3 nM in assay [1] and 116 nM in assay [2].

Consider `[2H]C([2H])([2H])N1C(=O)C2(CCN(CCOc3cnc(C4(S(C)(=O)=O)CC4)nc3)CC2)c2cc(Cl)ccc21` [Compound 424, 5-chloro-1′-(2-{[2-(1-methanesulfonylcyclopropyl)pyrimidin-5-yl]oxy}ethyl)-1-(^2H3)methyl-1,2-dihydrospiro[indole-3,4′-piperidin]-2-one], for which the AC50 at APOL1 G2 is 895 nM. The EC50 in assay [1] is 50.2 nM; in assay [2] it was 112 nM.

`[2H]C([2H])([2H])N1C(=O)C2(CCN(CCOc3cnc(C(C)S(C)(=O)=O)nc3)CC2)c2cc(Cl)ccc21` (stereo not drawn) [Compound 425, 5-chloro-1′-(2-{[2-(1-methanesulfonylethyl)pyrimidin-5-yl]oxy}ethyl)-1-(^2H3)methyl-1,2-dihydrospiro[indole-3,4′-piperidin]-2-one]: the AC50 on APOL1 G2 came to 1100 nM. In addition, the figures for the concentration giving a half-maximal response (EC50) in assay [1] and in assay [2] were 90.6 nM and 271 nM, respectively.

On to `O=C1Nc2ccc(Cl)cc2C12CCN(CCOc1cnc(C3(O)COC3)nc1)CC2` [Compound 429, 5-chloro-1′-(2-{[2-(3-hydroxyoxetan-3-yl)pyrimidin-5-yl]oxy}ethyl)-1,2-dihydrospiro[indole-3,4′-piperidin]-2-one], for which the AC50 at APOL1 G2 came out at 435 nM. The concentration for a half-maximal effect (EC50) was 130 nM in assay [1] and 200 nM in assay [2].

Take `O=C1Nc2ccc(Cl)cc2C12CCN(CCOc1cnc(C3(O)CCC3)nc1)CC2` [Compound 430, 5-chloro-1′-(2-{[2-(1-hydroxycyclobutyl)pyrimidin-5-yl]oxy}ethyl)-1,2-dihydrospiro[indole-3,4′-piperidin]-2-one]: the half-maximal activity concentration (AC50) at APOL1 G2 was 518 nM. Moreover, the EC50 in assay [1] is 72.9 nM; in assay [2], 123 nM.

As for `CC1(O)CN(c2ncc(OCCN3CCC4(CC3)C(=O)Nc3ccc(C#N)cc34)cc2C(F)(F)F)C1` [Compound 431, 1′-(2-{[6-(3-hydroxy-3-methylazetidin-1-yl)-5-(trifluoromethyl)pyridin-3-yl]oxy}ethyl)-2-oxo-1,2-dihydrospiro[indole-3,4′-piperidine]-5-carbonitrile], the AC50 at APOL1 G2 is 4870 nM. Also, the half-maximal effective concentration (EC50) is 18.7 nM in assay [1] and 37 nM in assay [2].

Values taken from patent US12344610B2, “APOL1 inhibitors and methods of use” (Maze Therapeutics, Inc., priority 2022, dated 2025).
